According to ChEMBL document CHEMBL1914392, “Comparative studies on interactions of baicalein, baicalin and scutellarin with lysozyme” (2011):
In brackets after ≈: the same amount, converted by molar mass. Activity calls are given as the source filed them. The rule behind the calls is not given here.

Legend:
Gallus gallus [1] = organism: Gallus gallus; test: Binding affinity to hen egg white lysozyme assessed as effective quenching constant at 298 K by Lineweaver-Burk plot analysis
Gallus gallus [2] = organism: Gallus gallus; test: Binding affinity to hen egg white lysozyme assessed as quenching rate constant at 298 K by Stern-Volmer plot analysis
Gallus gallus [3] = organism: Gallus gallus; test: Binding affinity to hen egg white lysozyme assessed as effective quenching constant at 310 K by Lineweaver-Burk plot analysis
Gallus gallus [4] = organism: Gallus gallus; test: Binding affinity to hen egg white lysozyme assessed as Stem-Volmer dynamic quenching constant at 298 K by Stern-Volmer plot analysis
Gallus gallus [5] = organism: Gallus gallus; test: Binding affinity to hen egg white lysozyme assessed as Stem-Volmer dynamic quenching constant at 310 K by Stern-Volmer plot analysis
Gallus gallus [6] = organism: Gallus gallus; test: Binding affinity to hen egg white lysozyme assessed as quenching rate constant at 310 K by Stern-Volmer plot analysis
Gallus gallus [7] = organism: Gallus gallus; test: Binding affinity to hen egg white lysozyme assessed as reduction in fluorescence intensity at 1 to 7 x 10^-6 M at 310 K
Gallus gallus [8] = organism: Gallus gallus; test: Binding affinity to hen egg white lysozyme at 310 K
Staphylococcus aureus [9] = test: Antibacterial activity against Staphylococcus aureus; format: functional
Staphylococcus aureus [10] = test: Antibacterial activity against Staphylococcus aureus in presence of 25 mg/L lysozyme; format: functional
Gallus gallus [11] = organism: Gallus gallus; test: Binding affinity to hen egg white lysozyme assessed as reduction in fluorescence intensity at 1 to 7 x 10^-6 M at 298 K
Gallus gallus [12] = organism: Gallus gallus; test: Binding affinity to hen egg white lysozyme in presence of 2 x10'-3 M
Gallus gallus [13] = organism: Gallus gallus; test: Binding affinity to hen egg white lysozyme at 298 K

| Compound | Kq (Gallus gallus [1]) [×10⁵ L/mol] | Kq (Gallus gallus [2]) [×10¹³ L/mol/s] | Kq (Gallus gallus [3]) | KSV (Gallus gallus [4]) [×10⁵ L/mol] | KSV (Gallus gallus [5]) | Kq (Gallus gallus [6]) | Activity (Gallus gallus [7]) | K (Gallus gallus [8]) [×10⁵ L/mol] | MIC50 (Staphylococcus aureus [9]) [µg/mL] | MIC50 (Staphylococcus aureus [10]) [µg/mL] | Activity (Gallus gallus [11]) | K (Gallus gallus [12]) | K (Gallus gallus [13]) |
| --- | --- | --- | --- | --- | --- | --- | --- | --- | --- | --- | --- | --- | --- |
| CC(C)(CO)[C@@H](O)C(=O)NCCC(=O)O | 1.28 | 1.02 | 5.27 ×10⁴ L/mol | 1.04 | 8.05 ×10⁴ L/mol | 8.03 ×10¹² L/mol/s | – | – | – | – | – | – | – |
| O=c1cc(-c2ccccc2)oc2cc(O)c(O)c(O)c12 [BAICALEIN] | 1.77 | 2.02 | 1.68 ×10⁵ L/mol | 2.02 | 1.75 ×10⁵ L/mol | 1.75 ×10¹³ L/mol/s | Active | 2.14 | 550 (≈ 2040 µM) | 350 | Active | 1.5 ×10⁸ Lmol | 3.39 ×10⁵ L/mol |
| O=C(O)[C@H]1O[C@@H](Oc2cc3oc(-c4ccccc4)cc(=O)c3c(O)c2O)[C@H](O)[C@@H](O)[C@@H]1O [BAICALIN] | 1.74 | 1.25 | 1.16 ×10⁵ L/mol | 1.25 | 1.14 ×10⁵ L/mol | 1.14 ×10¹³ L/mol/s | Active | 1.02 | 450 (≈ 1010 µM) | 350 | Active | 1.17 ×10⁶ Lmol | 2.95 ×10⁴ L/mol |
| O=C(O)[C@H]1O[C@@H](Oc2cc3oc(-c4ccc(O)cc4)cc(=O)c3c(O)c2O)[C@H](O)[C@@H](O)[C@@H]1O [SCUTELLARIN] | 1.25 | 1.63 | 1.15 ×10⁵ L/mol | 1.63 | 1.55 ×10⁵ L/mol | 1.55 ×10¹³ L/mol/s | Active | 3.98 | 650 (≈ 1410 µM) | 500 | Active | 2.24 ×10⁶ Lmol | 7.76 ×10⁵ L/mol |
